Experimental data published in paper PMC11638965, “Leveraging Dual-Ligase Recruitment to Enhance Protein Degradation via a Heterotrivalent Proteolysis Targeting Chimera” (Journal of the American Chemical Society, 2024).
Where “and” joins values, the source holds several entries; their conditions need not be identical. Equal values may be shown once. Read-outs that look alike come from different tables or passages of the source.

How the values were obtained:
[1] = system: KBM7 cells; assay: Cell viability assay (CellTiter-Glo); type: cell-based, human; conditions: Homo sapiens, KBM-7; WT KBM7, 5.12 pM to 10 uM, n = 3 (Table S4)
[2] = system: K562 cells; assay: Cell viability assay (CellTiter-Glo); type: cell-based, human; conditions: Homo sapiens; WT K562, 5.12 pM to 10 uM, n = 3 (Table S4)
[3] = molecular target: BRD4 (Homo sapiens, UniProt O60885); assay: Live cell kinetic HiBiT degradation assay, HiBiT-BRD4 HEK293 cells (parental, CRBN KO, VHL KO); type: cell-based; conditions: for λmax BRD4 (degradation rate): HiBiT-BRD4 knock-in HEK293 cells
How it was run: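 Endogenous N-terminal HiBiT-BRD4 HEK293 cells stably expressing LgBiT (parental, CRBN KO, VHL KO) in CO2-independent medium with Endurazine, pre-equilibrated 3 h at 37 °C. Luminescence read every 7 min for 24 h after PROTAC addition (threefold series), normalized to pre-read and DMSO. Dmax = lowest reading; rate from one-phase decay; Dmax50 from Dmax-vs-concentration fit.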

[4] = molecular target: T1, BRD3 (Homo sapiens, UniProt Q15059); assay: Live cell kinetic HiBiT degradation assay, HiBiT-BRD3 HEK293 cells; type: cell-based; conditions: for DC50: live cell kinetic degradation, read-out: Dmax 50 BRD3
T1 construct: HiBiT, is appended to the N-terminus of endogenous BRD2, BRD3, and BRD4; endogenous in cells
T1 sequence (Q15059 whole entry): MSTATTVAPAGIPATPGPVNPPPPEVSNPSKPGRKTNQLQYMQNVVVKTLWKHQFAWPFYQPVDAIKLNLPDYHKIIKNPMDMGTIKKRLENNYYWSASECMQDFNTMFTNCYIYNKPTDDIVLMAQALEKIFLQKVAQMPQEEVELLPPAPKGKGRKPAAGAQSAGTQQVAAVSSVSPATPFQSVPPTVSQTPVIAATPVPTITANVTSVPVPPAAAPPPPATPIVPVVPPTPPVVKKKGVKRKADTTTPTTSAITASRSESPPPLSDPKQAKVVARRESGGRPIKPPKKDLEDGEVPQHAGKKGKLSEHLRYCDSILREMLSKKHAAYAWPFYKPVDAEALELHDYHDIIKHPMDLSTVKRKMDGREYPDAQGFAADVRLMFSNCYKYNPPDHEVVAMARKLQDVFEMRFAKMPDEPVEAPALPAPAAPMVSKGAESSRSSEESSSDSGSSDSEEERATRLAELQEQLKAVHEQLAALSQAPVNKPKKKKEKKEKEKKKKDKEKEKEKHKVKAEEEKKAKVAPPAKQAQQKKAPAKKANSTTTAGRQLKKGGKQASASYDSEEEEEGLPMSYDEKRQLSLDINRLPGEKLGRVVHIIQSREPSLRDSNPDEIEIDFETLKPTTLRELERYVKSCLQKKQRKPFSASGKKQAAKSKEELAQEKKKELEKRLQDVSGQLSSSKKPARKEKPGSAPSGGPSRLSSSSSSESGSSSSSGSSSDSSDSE
How it was run: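 HEK293 cells with CRISPR-inserted N-terminal HiBiT on endogenous BRD2 or BRD3, stably expressing LgBiT, equilibrated 3 h with Endurazine at 37 °C, then treated with threefold PROTAC dilution series. Luminescence read every 7 min for 24 h, normalized to pre-read and DMSO; Dmax as lowest signal, rate constant by one-phase exponential decay, Dmax50 from Dmax-concentration fit.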

[5] = system: RKO WT cells; assay: cells; type: cell-based, human; conditions: for EC50: Homo sapiens
[6] = HiBiT-BRD4 CRISPR knock-in HEK293 cells, live cell kinetic degradation, 24 h, read-out: Dmax 50 BRD4
[7] = HiBiT-BRD3 CRISPR knock-in HEK293 cells, 24 h
[8] = HiBiT-BRD3 knock-in HEK293 cells
[9] = WT RKO, 316 pM to 10 μM, n = 3 (Table S4), read-out: EC50 RKO

Compound: Cc1ncsc1-c1ccc([C@H](C)NC(=O)[C@@H]2C[C@@H](O)CN2C(=O)[C@@H](NC(=O)COCC(C)(COCCOCCOCCNc2cc3c(cc2F)C(=O)N(C2CCC(=O)NC2=O)C3=O)COCCOCCOCCOC(=O)C[C@@H]2N=C(c3ccc(Cl)cc3)c3c(sc(C)c3C)-n3c(C)nnc32)C(C)(C)C)cc1 (mixture of isomers) [AB3067 (27), (17S)-11-((2-(2-(2-((2-(2,6-dioxopiperidin-3-yl)-6-fluoro-1,3-dioxoisoindolin-5-yl)amino)ethoxy)ethoxy)ethoxy)methyl)-17-((2S,4R)-4-hydroxy-2-(((S)-1-(4-(4-methylthiazol-5-yl)phenyl)ethyl)carbamoyl)pyrrolidine-1-carbonyl)-11,18,18-trimethyl-15-oxo-3,6,9,13-tetraoxa-16-azanonadecyl 2-((S)-4-(4-chlorophenyl)-2,3,9-trimethyl-6H-thieno[3,2-f][1,2,4]triazolo[4,3-a][1,4]diazepin-6-yl)acetate]
- EC50 [1]: 6.9 nM
- EC50 [2]: 62.1 nM
- fold less Dmax 50 for BRD4 degradation in CRBN KO than in parent HiBiT-BRD4 cells ([3]; CRBN KO vs parental): 60 fold
- EC50 [3, 6]: 0.6 nM and 0.64 nM
- λmax (HiBiT-BRD4: CRBN KO) ([3]; HiBiT-BRD4 HEK293 CRBN KO cells (Figure 9)): 1.0 h⁻¹
- EC50 ([3]; HiBiT-BRD4 HEK293 CRBN KO cells, 5 pM to 3 μM (Figure 9), read-out: Dmax 50 (HiBiT-BRD4: CRBN KO)): 38 nM
- λmax (HiBiT-BRD4: VHL KO) ([3]; HiBiT-BRD4 HEK293 VHL KO cells (Figure 9)): 1.2 h⁻¹
- EC50 ([3]; HiBiT-BRD4 HEK293 VHL KO cells, 5 pM to 3 μM (Figure 9), read-out: Dmax 50 (HiBiT-BRD4: VHL KO)): 23 nM
- λmax (HiBiT-BRD4: Parental) ([3]; HiBiT-BRD4 HEK293 parental cells (Figure 9)): 2.3 h⁻¹
- λmax BRD4 (degradation rate) [3]: 2.68 h⁻¹
- fold less Dmax 50 for BRD4 degradation in VHL KO than in parent HiBiT-BRD4 cells ([3]; VHL KO vs parental): 40 fold
- DC50 [4, 7]: < 0.43 nM
- λmax BRD3 (degradation rate) [4, 8]: 3.31 h⁻¹
- DC50 [4, 8]: 0.085 nM
- EC50 ([5]; 72 h, 316 pM to 10 μM, 3 days, n = 3 (Figures 5 and 8C, Table S5), read-out: EC50 RKO WT): 111 nM
- EC50 ([5]; 72 h, 500 pM to 10 μM, 3 days (Figure 10, Table S6), read-out: EC50 RKO WT): 73 nM
- EC50 ([5]; RKO WT, 316 pM to 10 μM, n = 6, combination: dBET6 and MZ1 each from 5 μM (Table S7), read-out: EC50 RKO): 49 nM
- EC50 [5, 9]: 97.5 nM
- cytotoxicity compared with 1:1 mixture of dBET6 and MZ1 (in words) ([5]; human, 3 days): more cytoxic than the 1:1 mixture of dBET6 and MZ1

Compound: Cc1ncsc1-c1ccc(CNC(=O)[C@@H]2C[C@@H](O)CN2C(=O)[C@@H](NC(=O)COCC(C)(COCCOCCNc2cc3c(cc2F)C(=O)N(C2CCC(=O)NC2=O)C3=O)COCCOCCOC(=O)C[C@@H]2N=C(c3ccc(Cl)cc3)c3c(sc(C)c3C)-n3c(C)nnc32)C(C)(C)C)cc1 (mixture of isomers) [AB3125 (30), (14S)-8-((2-(2-((2-(2,6-dioxopiperidin-3-yl)-6-fluoro-1,3-dioxoisoindolin-5-yl)amino)ethoxy)ethoxy)methyl)-14-((2S,4R)-4-hydroxy-2-((4-(4-methylthiazol-5-yl)benzyl)carbamoyl)pyrrolidine-1-carbonyl)-8,15,15-trimethyl-12-oxo-3,6,10-trioxa-13-azahexadecyl 2-((S)-4-(4-chlorophenyl)-2,3,9-trimethyl-6H-thieno[3,2-f][1,2,4]triazolo[4,3-a][1,4]diazepin-6-yl)acetate]
- EC50 [1]: 34.1 nM
- EC50 [2]: 242 nM
- fold increase in degradation of BRD4 (Dmax 50) vs matched pair ([3]; 23 vs 1, 26 vs 23, 30 vs 2, HiBiT-BRD4 HEK293 cells): 6.7 fold
- EC50 [3, 6]: 8.2 nM
- λmax BRD4 (degradation rate) [3]: 1.76 h⁻¹
- DC50 [4, 7]: 3 nM
- λmax BRD3 (degradation rate) [4, 8]: 2.60 h⁻¹ and 2.6 h⁻¹
- EC50 [5, 9]: 369 nM

Compound: Cc1ncsc1-c1ccc(CNC(=O)[C@@H]2C[C@@H](O)CN2C(=O)[C@@H](NC(=O)COCC(C)(COCCOCCNc2cc3c(cc2F)C(=O)N(C2CCC(=O)NC2=O)C3=O)COCCOCCOCCOC(=O)C[C@@H]2N=C(c3ccc(Cl)cc3)c3c(sc(C)c3C)-n3c(C)nnc32)C(C)(C)C)cc1 (mixture of isomers) [AB3126 (29), (17S)-11-((2-(2-((2-(2,6-dioxopiperidin-3-yl)-6-fluoro-1,3-dioxoisoindolin-5-yl)amino)ethoxy)ethoxy)methyl)-17-((2S,4R)-4-hydroxy-2-((4-(4-methylthiazol-5-yl)benzyl)carbamoyl)pyrrolidine-1-carbonyl)-11,18,18-trimethyl-15-oxo-3,6,9,13-tetraoxa-16-azanonadecyl 2-((S)-4-(4-chlorophenyl)-2,3,9-trimethyl-6H-thieno[3,2-f][1,2,4]triazolo[4,3-a][1,4]diazepin-6-yl)acetate]
- EC50 [1]: 7.3 nM
- EC50 [2]: 80.5 nM
- EC50 [3, 6]: 4 nM
- λmax BRD4 (degradation rate) [3]: 1.69 h⁻¹
- DC50 [4, 7]: 1.9 nM
- λmax BRD3 (degradation rate) [4, 8]: 2.62 h⁻¹
- EC50 [5, 9]: 195 nM
